What all share (assay type): functional
Assay [1] concerns Encephalomyocarditis virus. Nature of the assay: Antiviral activity against Encephalomyocarditis virus infected in CF-1 mouse assessed as host survival time ratio at 250 mg/kg, sc administered as single dose at 22 hrs before virus inoculation. The note with it: route subcutaneous.
In assay [2] the test system is Encephalomyocarditis virus. Nature of the assay: Antiviral activity against Encephalomyocarditis virus infected in CF-1 mouse assessed as host survival time ratio at 50 mg/kg, sc administered 28, 22, 2 hrs before and 2 hrs after virus inoculation. The note with it: route subcutaneous.
Assay [3] concerns Encephalomyocarditis virus. Nature of the assay: Antiviral activity against Encephalomyocarditis virus infected in CF-1 mouse assessed as host survival time ratio at 50 mg/kg, po administered via gavage at 28, 22, 2 hrs before and 2 hrs after virus inoculation.
Assay [4] deals with Encephalomyocarditis virus. As to the kind of experiment: Antiviral activity against Encephalomyocarditis virus infected in CF-1 mouse assessed as host survival time ratio at 10 mg/kg, sc administered 28, 22, 2 hrs before and 2 hrs after virus inoculation. The note with it: route subcutaneous.
Assay [5] concerns Encephalomyocarditis virus. As to the kind of experiment: Antiviral activity against Encephalomyocarditis virus infected in CF-1 mouse assessed as host survival time ratio at 250 mg/kg, po administered via gavage as single dose at 22 to 28 hrs before virus inoculation.
Assay [6] relates to Encephalomyocarditis virus. As to the kind of experiment: Antiviral activity against Encephalomyocarditis virus infected in CF-1 mouse assessed as host survival time ratio at 250 mg/kg, sc administered 28, 22, 2 hrs before and 2 hrs after virus inoculation. Particulars: route subcutaneous.

As to `CCN(CC)CCCOc1ccc2oc3ccc(OCCCN(CC)CC)cc3c2c1`, the Ratio amounted to 1.47 in assay [1]; 0.88 in assay [2]; 0.98 in assay [3]; 0.98 in assay [4]; 0.92 in assay [5].
Consider `CCN(CC)CC(=O)c1ccc2oc3ccc(C(=O)CN(CC)CC)cc3c2c1.Cl`, for which the Ratio in assay [2] was determined as 1.35; in assay [6], 2.17; in assay [3], 0.96; in assay [4] it was 0.96; in assay [5], 1.65.
Regarding `CCn1c2ccc(C(=O)CCCN3CCCCC3)cc2c2cc(C(=O)CCCN3CCCCC3)ccc21.Cl`, the Ratio in assay [2] was found to be 1.58; in assay [6] it was 0.56; in assay [3] it was 1.09; in assay [4] it was 1.68; in assay [5], 1.2.
The corresponding values for `CCN(CC)CCOC(=O)c1ccc2oc3ccc(C(=O)OCCN(CC)CC)cc3c2c1.Cl` are 1.02, 1.09, 1.02, 1 and 0.98.
The like results for `CN(C)CCCC(=O)c1ccc2sc3ccc(C(=O)CCCN(C)C)cc3c2c1.Cl` were, in that order, 1.66, 1.09, 1, 1.09 and 0.95.
The corresponding values for `CC1CCCN(COC(=O)c2ccc3oc4ccc(C(=O)OCN5CCCC(C)C5)cc4c3c2)C1.Cl` (stereo not given) are 1.07, 1.05, 1.03, 1.07 and 1.
Take `CC(CN(C)C)Oc1ccc2oc3ccc(OC(C)CN(C)C)cc3c2c1.O=C(O)CC(O)(CC(=O)O)C(=O)O` (stereo not given): the Ratio in assay [2] is recorded as 1.08; in assay [6], 0.9; in assay [3] it was 0.84; in assay [4] it was 0.94; in assay [5] it was 0.84.
As to `CCn1c2ccc(OCCN3CCOCC3)cc2c2cc(OCCN3CCOCC3)ccc21`, the Ratio was determined as 1.08 in assay [2]; 1.02 in assay [6]; 0.86 in assay [3]; 0.92 in assay [4]; 0.88 in assay [5].
With `CCN(CC)CCOc1ccc2sc3ccc(OCCN(CC)CC)cc3c2c1.O=C(O)/C=C/C(=O)O`, the Ratio in assay [2] is 1.12; in assay [6] it was 1.32; in assay [3], 0.88; in assay [4] it was 0.96; in assay [5], 0.86.
The corresponding values for `CCN(CC)CCOc1ccc2oc3ccc(OCCN(CC)CC)cc3c2c1.Cl` are 1.31, 0.91, 1.17, 1.21 and 1.02.
The corresponding values for `CC(COc1ccc2sc3ccc(OCC(C)CN(C)C)cc3c2c1)CN(C)C.Cl` (stereo not given) are 1.08, 0.84, 1.04, 0.96 and 0.94.
The corresponding values for `Cl.c1cc2oc3ccc(OCCN4CCCC4)cc3c2cc1OCCN1CCCC1` are 1.04, 0.88, 0.98, 1.08 and 1.
In the case of `CC1CCN(CCCC(=O)c2ccc3oc4ccc(C(=O)CCCN5CCC(C)CC5)cc4c3c2)CC1`, the Ratio in assay [2] was 2.13; in assay [6], 2.04; in assay [3], 1.11; in assay [4] it was 1.23; in assay [5], 1.19.
The like results for `CN(C)CCCOC(=O)c1ccc2oc3ccc(C(=O)OCCCN(C)C)cc3c2c1.Cl` were, in that order, 1.26, 1.36, 1.07, 1.19 and 1.07.
Turning to `Cl.O=C(CCCN1CCC(Cc2ccccc2)CC1)c1ccc2oc3ccc(C(=O)CCCN4CCC(Cc5ccccc5)CC4)cc3c2c1`, the Ratio in assay [1] is given as 1.82; in assay [2] it was 1.7; in assay [3], 1.07; in assay [4], 1.27; in assay [5] it was 0.98.
Turning to `CC(COc1ccc2oc3ccc(OCC(C)CN(C)C)cc3c2c1)CN(C)C.Cl` (stereo not given), the Ratio in assay [2] was found to be 1.14; in assay [6], 0.57; in assay [3], 0.9; in assay [4], 1.2; in assay [5], 0.92.
On to `O=C(CCCN1CCCCC1)c1ccc2c(c1)sc1ccc(C(=O)CCCN3CCCCC3)cc12`, for which the Ratio in assay [2] is given as 1.71; in assay [6], 2.08; in assay [3], 1.1; in assay [4], 1.21; in assay [5] it was 1.23.
The like results for `Cl.O=C(CCCN1CCOCC1)c1ccc2c(c1)sc1ccc(C(=O)CCCN3CCOCC3)cc12` were, in that order, 1.33, 1.98, 0.9, 1.13 and 0.94.
The corresponding values for `O=C(CCCN1CCOCC1)c1ccc2oc3ccc(C(=O)CCCN4CCOCC4)cc3c2c1` are 1.39, 1.96, 1.08, 1 and 1.08.
The corresponding values for `CN(C)CCCOc1ccc2oc3ccc(OCCCN(C)C)cc3c2c1.Cl` are 1.24, 0.66, 0.92, 0.92 and 0.88.
Turning to `O=C(CCCN1CCCCC1)c1ccc2sc3ccc(C(=O)CCCN4CCCCC4)cc3c2c1`, the Ratio in assay [2] was determined as 1.9; in assay [6], 0.61; in assay [3] it was 1.16; in assay [4] it was 1.1; in assay [5], 1.22.
The like results for `Cl.O=C(OCCCN1CCCCC1)c1ccc2oc3ccc(C(=O)OCCCN4CCCCC4)cc3c2c1` were, in that order, 1.22, 0.91, 0.96, 1.11 and 1.02.
The like results for `CCCCN(CCCC)CCCOC(=O)c1ccc2sc3ccc(C(=O)OCCCN(CCCC)CCCC)cc3c2c1.Cl` were, in that order, 1.48, 2.43, 0.93, 1.29 and 0.93.
The corresponding values for `CCn1c2ccc(OCCN3CCCCC3)cc2c2cc(OCCN3CCCCC3)ccc21.Cl` are 1.32, 1.25, 1.09, 1.16 and 1.09.
As to `Cl.c1cc2sc3ccc(OCCN4CCCCC4)cc3c2cc1OCCN1CCCCC1`, the Ratio in assay [2] turned out to be 1.57; in assay [6], 1.3; in assay [3], 0.98; in assay [4], 1.09; in assay [5], 1.02.
